Laboratory results as given in ChEMBL document CHEMBL5696441 (Nat Chem Biol, 2011).
Calls of active or inactive are those of the source. No cut-off for these calls is given here.

Tests used:
[1] = system: Mast/stem cell growth factor receptor Kit (Homo sapiens), P10721 [T670I]; assay: Inhibition of human KIT T670I mutant assessed as residual activity at 1 uM using polyEY as substrate in presence of 33P-ATP by ProQinase assay relative to control
[2] = target: Casein kinase I isoform gamma-1 (Homo sapiens) (UniProt Q9HCP0); assay: Inhibition of human CK1gamma1 assessed as residual activity at 1 uM using casein as substrate in presence of 33P-ATP by ProQinase assay relative to control
Chain of Casein kinase I isoform gamma-1 (Homo sapiens) (Q9HCP0 whole entry, looked up, canonical isoform): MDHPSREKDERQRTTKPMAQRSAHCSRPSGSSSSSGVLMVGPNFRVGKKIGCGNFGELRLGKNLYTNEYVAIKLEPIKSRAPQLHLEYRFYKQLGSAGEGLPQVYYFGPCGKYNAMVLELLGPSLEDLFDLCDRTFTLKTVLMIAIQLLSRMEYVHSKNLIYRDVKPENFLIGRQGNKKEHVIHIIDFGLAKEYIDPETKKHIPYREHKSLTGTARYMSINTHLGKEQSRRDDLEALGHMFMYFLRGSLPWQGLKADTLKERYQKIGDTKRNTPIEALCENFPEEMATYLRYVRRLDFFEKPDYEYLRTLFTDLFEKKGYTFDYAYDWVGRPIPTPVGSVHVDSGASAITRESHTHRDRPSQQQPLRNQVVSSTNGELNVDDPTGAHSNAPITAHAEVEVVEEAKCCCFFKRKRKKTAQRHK

[3] = system: Phosphatidylinositol 4,5-bisphosphate 3-kinase catalytic subunit alpha isoform (Homo sapiens), P42336 [E545K]; assay: Inhibition of PIK3CA E545K mutant (unknown origin) assessed as remaining activity at 1 uM by Kinome scan method relative to control
PBMC = assay: Anti-inflammatory activity against human derived medium respond PBMC cells assessed as increase in stimulated IL-12p70 cytokine release at 1 uM incubated for 2 hrs in the presence of LPS/SEB/aCD28 by Luminex based sandwich immunoassay; assay type: functional, cell-based
[4] = target: T1, Serine/threonine-protein kinase 17A (Homo sapiens) (UniProt Q9UEE5); assay: Inhibition of human STK17A assessed as residual activity at 1 uM using RB-CTF as substrate in presence of 33P-ATP by ProQinase assay relative to control
T1 sequence (whole entry): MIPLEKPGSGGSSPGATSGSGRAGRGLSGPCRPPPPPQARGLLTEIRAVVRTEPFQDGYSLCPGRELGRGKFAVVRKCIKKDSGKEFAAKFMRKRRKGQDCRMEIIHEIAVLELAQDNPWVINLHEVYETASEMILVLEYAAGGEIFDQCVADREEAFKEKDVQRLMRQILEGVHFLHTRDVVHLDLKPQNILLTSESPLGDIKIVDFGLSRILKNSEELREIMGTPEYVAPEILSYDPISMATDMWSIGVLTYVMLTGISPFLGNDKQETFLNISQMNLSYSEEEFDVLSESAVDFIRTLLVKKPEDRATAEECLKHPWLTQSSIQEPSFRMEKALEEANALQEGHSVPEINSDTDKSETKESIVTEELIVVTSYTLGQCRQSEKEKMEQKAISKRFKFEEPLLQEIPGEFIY

[5] = target: Serine/threonine-protein kinase PLK2 (Homo sapiens) (UniProt Q9NYY3); assay: Inhibition of PLK2 (unknown origin) assessed as remaining activity at 1 uM by Kinome scan method relative to control
Chain of Serine/threonine-protein kinase PLK2 (Homo sapiens) (Q9NYY3 whole entry, looked up): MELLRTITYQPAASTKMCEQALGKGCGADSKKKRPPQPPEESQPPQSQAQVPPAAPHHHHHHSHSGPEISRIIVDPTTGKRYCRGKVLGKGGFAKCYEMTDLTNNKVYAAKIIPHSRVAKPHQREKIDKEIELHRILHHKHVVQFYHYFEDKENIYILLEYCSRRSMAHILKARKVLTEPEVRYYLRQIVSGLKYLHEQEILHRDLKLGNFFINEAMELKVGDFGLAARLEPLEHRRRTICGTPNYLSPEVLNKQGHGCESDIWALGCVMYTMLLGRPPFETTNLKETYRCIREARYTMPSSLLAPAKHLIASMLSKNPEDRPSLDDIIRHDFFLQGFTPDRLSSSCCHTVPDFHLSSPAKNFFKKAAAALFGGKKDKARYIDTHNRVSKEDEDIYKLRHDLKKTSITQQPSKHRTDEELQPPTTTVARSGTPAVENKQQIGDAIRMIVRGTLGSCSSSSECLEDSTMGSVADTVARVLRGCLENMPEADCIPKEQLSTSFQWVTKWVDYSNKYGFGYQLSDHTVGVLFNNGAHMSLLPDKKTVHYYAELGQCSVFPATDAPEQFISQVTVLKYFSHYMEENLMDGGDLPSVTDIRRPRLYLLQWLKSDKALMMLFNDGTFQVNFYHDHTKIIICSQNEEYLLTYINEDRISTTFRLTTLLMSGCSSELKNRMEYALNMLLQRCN

[6] = target: TGF-beta receptor type-2 (Homo sapiens) (UniProt P37173); assay: Inhibition of human TGFBR2 assessed as residual activity at 1 uM using RB-S6P as substrate in presence of 33P-ATP by ProQinase assay relative to control
Chain of TGF-beta receptor type-2 (Homo sapiens) (P37173 whole entry): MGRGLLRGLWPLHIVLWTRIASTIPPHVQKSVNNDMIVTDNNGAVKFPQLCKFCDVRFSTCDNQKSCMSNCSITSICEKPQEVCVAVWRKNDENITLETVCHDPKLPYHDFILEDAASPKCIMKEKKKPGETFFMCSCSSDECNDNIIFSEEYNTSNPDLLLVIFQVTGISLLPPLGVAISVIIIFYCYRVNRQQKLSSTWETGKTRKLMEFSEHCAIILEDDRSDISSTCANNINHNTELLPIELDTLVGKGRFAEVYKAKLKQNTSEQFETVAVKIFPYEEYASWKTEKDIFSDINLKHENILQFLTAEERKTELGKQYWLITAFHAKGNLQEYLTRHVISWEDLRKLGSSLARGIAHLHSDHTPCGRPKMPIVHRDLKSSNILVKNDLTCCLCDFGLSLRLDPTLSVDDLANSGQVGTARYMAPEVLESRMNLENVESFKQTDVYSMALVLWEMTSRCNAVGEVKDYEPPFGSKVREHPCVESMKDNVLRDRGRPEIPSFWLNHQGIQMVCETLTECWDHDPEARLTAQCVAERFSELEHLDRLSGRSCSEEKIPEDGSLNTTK

[7] = target: Dual specificity mitogen-activated protein kinase kinase 1 (Homo sapiens) (UniProt Q02750); assay: Inhibition of MEK1 (unknown origin) assessed as remaining activity at 1 uM by Kinome scan method relative to control
Chain of Dual specificity mitogen-activated protein kinase kinase 1 (Homo sapiens) (Q02750 whole entry): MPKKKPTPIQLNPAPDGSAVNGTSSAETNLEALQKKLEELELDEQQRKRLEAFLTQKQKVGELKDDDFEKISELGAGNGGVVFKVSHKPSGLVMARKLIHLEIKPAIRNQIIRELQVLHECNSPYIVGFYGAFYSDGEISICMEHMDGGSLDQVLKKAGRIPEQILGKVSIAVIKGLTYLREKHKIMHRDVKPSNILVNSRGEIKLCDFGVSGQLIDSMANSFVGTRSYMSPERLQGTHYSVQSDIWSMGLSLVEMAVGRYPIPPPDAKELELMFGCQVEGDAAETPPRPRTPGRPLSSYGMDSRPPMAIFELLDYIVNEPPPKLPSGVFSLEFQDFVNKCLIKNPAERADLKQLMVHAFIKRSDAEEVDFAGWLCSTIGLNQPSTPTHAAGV

[8] = target: Ephrin type-A receptor 7 (Homo sapiens) (UniProt Q15375); assay: Inhibition of EPHA7 (unknown origin) assessed as remaining activity at 1 uM by Kinome scan method relative to control
Chain of Ephrin type-A receptor 7 (Homo sapiens) (Q15375 28-998 limits assumed): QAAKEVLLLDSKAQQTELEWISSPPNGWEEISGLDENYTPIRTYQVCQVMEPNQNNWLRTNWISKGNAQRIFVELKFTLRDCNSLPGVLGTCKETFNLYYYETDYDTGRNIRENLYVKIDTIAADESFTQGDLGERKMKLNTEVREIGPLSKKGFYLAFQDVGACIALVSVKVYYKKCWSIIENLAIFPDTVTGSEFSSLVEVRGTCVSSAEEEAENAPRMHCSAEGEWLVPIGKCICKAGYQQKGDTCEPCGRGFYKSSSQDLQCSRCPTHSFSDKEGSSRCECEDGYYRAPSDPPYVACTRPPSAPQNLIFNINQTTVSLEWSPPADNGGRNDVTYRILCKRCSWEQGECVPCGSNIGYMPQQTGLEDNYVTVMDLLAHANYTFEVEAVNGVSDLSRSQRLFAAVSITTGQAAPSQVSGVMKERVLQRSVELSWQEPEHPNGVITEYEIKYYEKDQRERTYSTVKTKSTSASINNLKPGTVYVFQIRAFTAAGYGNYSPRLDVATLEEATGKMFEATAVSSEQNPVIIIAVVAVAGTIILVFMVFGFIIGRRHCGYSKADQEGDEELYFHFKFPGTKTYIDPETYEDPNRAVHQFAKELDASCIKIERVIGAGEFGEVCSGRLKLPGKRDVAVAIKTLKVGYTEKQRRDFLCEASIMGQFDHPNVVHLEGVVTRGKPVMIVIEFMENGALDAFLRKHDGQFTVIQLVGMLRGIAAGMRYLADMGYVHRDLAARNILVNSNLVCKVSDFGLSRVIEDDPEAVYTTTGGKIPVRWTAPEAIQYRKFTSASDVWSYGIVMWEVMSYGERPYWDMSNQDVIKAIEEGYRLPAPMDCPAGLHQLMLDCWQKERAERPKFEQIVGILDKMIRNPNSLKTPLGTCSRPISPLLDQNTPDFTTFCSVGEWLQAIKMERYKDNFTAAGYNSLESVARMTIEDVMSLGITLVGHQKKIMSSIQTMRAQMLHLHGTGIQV

[9] = system: Hepatocyte growth factor receptor (Homo sapiens), P08581 [Y1230A]; assay: Inhibition of human MET Y1230A mutant assessed as residual activity at 1 uM using poly(Ala,Glu,Lys,Tyr)6:2:5:1 as substrate in presence of 33P-ATP by ProQinase assay relative to control
[10] = target: Casein kinase II subunit alpha' (Homo sapiens) (UniProt P19784); assay: Inhibition of CSNK2A2 (unknown origin) assessed as remaining activity at 1 uM by Kinome scan method relative to control
[11] = Anti-inflammatory activity against human derived medium respond PBMC cells assessed as inhibition in stimulated MCP-1 chemokine release incubated for 2 hrs in the presence of LPS/SEB/aCD28 by Luminex based sandwich immunoassay; assay type: functional, cell-based
[12] = target: Protein kinase C gamma type (Homo sapiens) (UniProt P05129); assay: Inhibition of human PKCgamma assessed as residual activity at 1 uM using 3xChocktide-PKC(19-31) as substrate in presence of 33P-ATP by ProQinase assay relative to control
[13] = target: Phosphatidylinositol 4,5-bisphosphate 3-kinase catalytic subunit alpha isoform (Homo sapiens) (UniProt P42336); assay: Inhibition of PIK3CA (unknown origin) assessed as remaining activity at 1 uM by Kinome scan method relative to control
[14] = target: Homeodomain-interacting protein kinase 2 (Homo sapiens) (UniProt Q9H2X6); assay: Inhibition of HIPK2 (unknown origin) assessed as remaining activity at 1 uM by Kinome scan method relative to control
[15] = target: RAC-beta serine/threonine-protein kinase (Homo sapiens) (UniProt P31751); assay: Inhibition of human AKT2 assessed as residual activity at 1 uM using RBER-GSK3(14-27) as substrate in presence of 33P-ATP by ProQinase assay relative to control
[16] = target: T2, cGMP-dependent protein kinase 2 (Homo sapiens) (UniProt Q13237); assay: Inhibition of human PRKG2 assessed as residual activity at 1 uM using RBER-GSK3(14-27) as substrate in presence of 33P-ATP by ProQinase assay relative to control
T2 sequence (whole entry): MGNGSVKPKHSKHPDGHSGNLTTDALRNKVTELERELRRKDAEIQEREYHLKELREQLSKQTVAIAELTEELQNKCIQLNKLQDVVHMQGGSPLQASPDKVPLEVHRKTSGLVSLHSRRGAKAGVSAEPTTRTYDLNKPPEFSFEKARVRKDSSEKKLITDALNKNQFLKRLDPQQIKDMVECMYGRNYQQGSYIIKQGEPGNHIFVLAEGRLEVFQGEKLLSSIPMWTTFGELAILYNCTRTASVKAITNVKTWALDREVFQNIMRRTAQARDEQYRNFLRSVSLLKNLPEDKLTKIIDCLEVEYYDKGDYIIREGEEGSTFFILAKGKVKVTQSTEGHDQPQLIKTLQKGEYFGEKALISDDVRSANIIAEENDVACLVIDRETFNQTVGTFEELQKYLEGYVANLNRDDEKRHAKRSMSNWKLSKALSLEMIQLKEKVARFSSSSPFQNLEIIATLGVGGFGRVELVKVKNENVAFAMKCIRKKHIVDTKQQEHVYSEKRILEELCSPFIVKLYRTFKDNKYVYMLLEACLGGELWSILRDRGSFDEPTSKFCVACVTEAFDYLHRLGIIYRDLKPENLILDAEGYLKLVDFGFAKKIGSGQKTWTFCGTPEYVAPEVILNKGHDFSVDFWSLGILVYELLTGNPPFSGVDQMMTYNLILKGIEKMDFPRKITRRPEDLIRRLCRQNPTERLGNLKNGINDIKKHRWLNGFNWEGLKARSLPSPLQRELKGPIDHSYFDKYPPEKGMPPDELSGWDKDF

[17] = target: Serine/threonine-protein kinase pim-1 (Homo sapiens) (UniProt P11309); assay: Inhibition of PIM1 (unknown origin) assessed as remaining activity at 1 uM by Kinome scan method relative to control
Chain of Serine/threonine-protein kinase pim-1 (Homo sapiens) (P11309 whole entry, looked up): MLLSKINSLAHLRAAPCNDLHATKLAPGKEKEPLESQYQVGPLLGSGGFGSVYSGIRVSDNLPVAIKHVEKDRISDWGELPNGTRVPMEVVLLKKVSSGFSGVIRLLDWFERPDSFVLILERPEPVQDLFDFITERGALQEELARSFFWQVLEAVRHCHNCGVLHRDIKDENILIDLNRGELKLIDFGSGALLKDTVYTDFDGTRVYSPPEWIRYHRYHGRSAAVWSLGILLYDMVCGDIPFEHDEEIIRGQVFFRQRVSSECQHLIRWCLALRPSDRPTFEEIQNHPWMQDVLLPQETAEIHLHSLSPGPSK

Chain of Mast/stem cell growth factor receptor Kit (Homo sapiens), P10721 [T670I] (P10721 whole entry T670I, canonical isoform): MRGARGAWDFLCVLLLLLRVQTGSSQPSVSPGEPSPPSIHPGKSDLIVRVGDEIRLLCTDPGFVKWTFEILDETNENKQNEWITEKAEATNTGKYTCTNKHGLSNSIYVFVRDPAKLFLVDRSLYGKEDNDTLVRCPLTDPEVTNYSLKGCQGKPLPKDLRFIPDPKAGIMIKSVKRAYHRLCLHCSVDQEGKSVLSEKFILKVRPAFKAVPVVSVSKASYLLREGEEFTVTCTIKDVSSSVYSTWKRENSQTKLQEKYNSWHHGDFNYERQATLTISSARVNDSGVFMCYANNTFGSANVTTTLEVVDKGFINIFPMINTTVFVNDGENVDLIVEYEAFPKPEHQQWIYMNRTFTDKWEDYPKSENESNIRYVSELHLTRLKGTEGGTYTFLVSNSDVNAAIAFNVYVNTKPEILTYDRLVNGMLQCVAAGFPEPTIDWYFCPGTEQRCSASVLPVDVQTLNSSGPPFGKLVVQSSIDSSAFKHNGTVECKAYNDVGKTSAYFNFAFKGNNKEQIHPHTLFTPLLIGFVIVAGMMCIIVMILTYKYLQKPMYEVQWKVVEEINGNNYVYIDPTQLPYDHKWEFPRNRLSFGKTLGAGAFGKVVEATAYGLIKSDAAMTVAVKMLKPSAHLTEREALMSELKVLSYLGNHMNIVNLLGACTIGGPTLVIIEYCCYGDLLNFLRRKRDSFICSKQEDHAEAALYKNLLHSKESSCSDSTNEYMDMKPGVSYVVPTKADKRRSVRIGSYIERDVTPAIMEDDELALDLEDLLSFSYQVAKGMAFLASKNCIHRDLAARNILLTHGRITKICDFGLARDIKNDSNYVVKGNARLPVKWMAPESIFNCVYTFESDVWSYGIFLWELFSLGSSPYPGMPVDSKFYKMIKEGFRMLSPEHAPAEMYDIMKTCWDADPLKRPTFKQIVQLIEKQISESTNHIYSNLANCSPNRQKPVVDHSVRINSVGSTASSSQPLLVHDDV

## O=C1c2ccc(Nc3ccc(F)cc3F)cc2CCc2ccc(OC[C@H](O)CO)cc21 [Skepinone-L]
[1]
  Activity: 145%
[2]
  Activity: 97%
[3]
  Activity: 100%
PBMC
  Activity: Active
[4]
  Activity: 77%
[5]
  Activity: 100%
[6]
  Activity: 77%
[7]
  Activity: 86%
[8]
  Activity: 89%
[9]
  Activity: 91%
[10]
  Activity: 100%
[11]
  IC50: 90 nM
[12]
  Activity: 99%
[13]
  Activity: 100%
[14]
  Activity: 100%
[15]
  Activity: 121%
[16]
  Activity: 94%
[17]
  Activity: 100%
